“And” between values parts separate entries of the source, which are not always exact repeats. Equal values may be shown once.
Experiments:
[1] = test system: M229, M238 and M249 parental cell lines; details: B-RAF(V600E)-positive parental cell lines, in vitro and in vivo; cited from earlier work
[2] = test system: M395 P over-expressing V600EB-RAF; test: Cell survival assay (72 h) with V600EB-RAF over-expression; format: cell-based, human
Procedure: FIGS. 9A-9C. ^V600EB-RAF levels modulate melanoma sensitivity to vemurafenib. […] Dashed line, 50% inhibition. […] FIG. 9C, Increasing (in M395 P) or decreasing (in M395 R) BRAF^V600E levels decreased or increased pERK sensitivity to PLX4032 (0, 0.1, 1, 10 μM) treatments for 1 h, respectively.
(§1) Cell culture, infections and drug treatments. Cells were maintained in DMEM with 10 or 20% fetal bovine serum and glutamine. shRNAs for B-RAF and C-RAF were sub-cloned into the lentiviral vector pLL3.7; pBabe B-RAF (V600E) was purchase (plasmid 17544, Addgene); viral supernatants generated by co-transfection with three packaging plasm ids into HEK293T cells; and infections carried out with protamine sulfate. Stocks and dilutions of PLX4032 (Plexxikon, Berkeley, Calif.) and AZD6244 (commercially available) were made in DMSO. Cells were quantified using CellTiter-GLO Luminescence (Promega) or crystal violet staining followed by NIH Image J quantification.

M395 R = test: Cell survival assay (72 h); format: cell-based, human
Text: as §1

pERK levels in M395 R = test: Western blot of pERK after acute vemurafenib titration; format: cell-based, human; details: vemurafenib titration 1 h after a 24 h drug withdrawal
melanoma tumors = test: Melanoma patients treated with vemurafenib (PLX4032): best response and PFS (Table 5); format: in vivo, human; details: individual patient; patients 1-19 acquired resistance, 20-21 primary resistant
[3] = test system: M238 R sub-lines (M238 R1); test: Cell survival / proliferation assay (72 h); format: cell-based, human; details: M238 R sub-lines
Procedure: (§2) Cells were maintained in Dulbecco's modified Eagle medium (DMEM) with 10 or 20% fetal bovine serum and glutamine. shRNAs were sub-cloned into the lentiviral vector pLL3.7 and infections carried out with protamine sulphate. Stocks of PLX4032 (Plexxikon) and AZD6244 (commercially available) were made in DMSO. Cells were quantified using CellTiter-GLO Luminescence (Promega).
(§3) Cell proliferation experiments were performed in a 96-well format (five replicates), and baseline quantification performed at 24 h after cell seeding along with initiation of drug treatments (72 h). Stocks and dilutions of PLX4032 (Plexxikon), AZD6244 (Selleck Chemicals) and U0126 (Promega) were made in DMSO. siRNA pool (Dharmacon) transfections were carried out in 384-well format. TransIT transfection reagent (Mirus) was added to each well and incubated at 37° C. for 20 min. Subsequently, cells were reverse transfected, and the mixture was incubated for 51-61 h at 37° C. Cells were quantified using CellTiter 96 Aqueous One Solution (Promega) or CellTiter-GLO Luminescence (Promega) following the manufacturer's recommendations.

[4] = test system: Pt55 R short-term culture; test: Cell survival / proliferation assay (72 h); format: cell-based, human
Procedure: as §2, §3

[5] = test system: Pt48 R short-term culture; test: Cell survival / proliferation assay (72 h); format: cell-based, human
Procedure: as §2, §3

[6] = test system: M229 R sub-lines (M229 R5); test: Cell survival / proliferation assay (72 h); format: cell-based, human; details: M229 R sub-lines
Procedure: as §2, §3

p61 BRAF(V600E/R509H) = p61 BRAF(V600E/R509H) (Homo sapiens, UniProt P15056, DEL169-380/R509H/V600E); test: ERK signaling in 293H cells expressing p61 BRAF(V600E/R509H); format: cell-based; details: 2 μM PLX4032 for 1 hour
p61 BRAF(V600E/R509H), sequence (P15056 with tags, fused parts or gaps DEL169-380/R509H/V600E): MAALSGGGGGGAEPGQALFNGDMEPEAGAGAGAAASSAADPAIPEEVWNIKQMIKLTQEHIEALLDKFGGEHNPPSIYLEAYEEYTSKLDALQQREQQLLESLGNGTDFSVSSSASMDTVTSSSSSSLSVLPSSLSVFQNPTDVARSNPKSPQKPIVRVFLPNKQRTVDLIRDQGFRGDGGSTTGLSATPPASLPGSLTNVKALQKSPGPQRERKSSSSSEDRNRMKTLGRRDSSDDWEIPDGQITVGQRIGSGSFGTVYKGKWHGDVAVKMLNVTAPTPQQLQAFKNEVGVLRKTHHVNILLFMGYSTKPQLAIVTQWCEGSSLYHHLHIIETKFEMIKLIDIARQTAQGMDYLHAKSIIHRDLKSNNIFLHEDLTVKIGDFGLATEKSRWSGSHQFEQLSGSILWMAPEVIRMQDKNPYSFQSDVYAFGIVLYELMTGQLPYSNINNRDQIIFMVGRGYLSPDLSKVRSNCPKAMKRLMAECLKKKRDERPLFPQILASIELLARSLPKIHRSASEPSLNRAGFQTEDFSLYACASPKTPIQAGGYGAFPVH
Text: FIGS. 6A-6E. […] FIG. 6A. PCR analysis of BRAF in cDNA from parental (P) and C3 cells. Primers were designed at the N-terminus and C-terminus of BRAF. […] Abbreviations: CR1: Conserved Region 1, CR2: Conserved Region 2, CR3: Conserved Region 3, RBD: RAS-binding domain, CRD: Cystine-Rich Domain, AS: Activation Segment, KD: Kinase Domain. FIG. 6B. Full length wild-type BRAF and the 1.7 kb/61 kd splice variant of BRAF(V600E) were cloned into a pcDNA3.1 vector with a FLAG tag at the C-terminus and expressed in 293H cells. The effect of PLX4032 (2 μM for 1 hour) on ERK signaling in the presence of p61 BRAF(V600E) was analyzed by western blot for pMEK and pERK. FIG. 6C. To compare levels of dimerization, 293H cells co-expressing FLAG tagged and V5-tagged p61 BRAF(V600E), full length BRAF(V600E) and the corresponding dimerization-deficient mutants p61 BRAF(V600E/R509H) and BRAF(V600E/R509H) were lysed followed by immunoprecipitation with FLAG antibody. Western blots with V5 or FLAG antibodies were performed as indicated. FIG. 6D. Comparison of MEK/ERK activation and sensitivity of ERK signaling to PLX4032 (2 μM for 1 hour) in 293H cells expressing either Flag-tagged BRAF(V600E) or the dimerization mutant Flag-tagged BRAF(V600E/R509H). FIG. 6E. […]

melanoma = test: PLX4032 clinical trial patients: best overall response and progression free survival (Table 2); format: in vivo, human; details: individual PLX4032 clinical trial patient
[7] = test system: ERK signaling (pMEK, pERK); test: Western blot of ERK signaling (pMEK, pERK) in SKMEL-239 parental cells and resistant clones
Procedure: PLX4032 IC50 curves (at 5 days) for the SKMEL-239 parental cell line and five PLX4032-resistant clones. […] Western blot for components of the ERK and AKT signaling pathways in parental and resistant clones (2 μM PLX4032/24 hours). […] Dose-response of pMEK and pERK downregulation at 1 hour to increasing concentrations of PLX4032 in parental and two representative resistant clones (C3 and C5). […] Graphic representation of the chemiluminescent signal intensities from 5D and determination of IC50s for inhibition of MEK phosphorylation by PLX4032 in the parental and C3 and C5 clones.
Western blotting and receptor tyrosine kinase (RTK) arrays. […] The following antibodies were used: p217/p221-MEK (pMEK), p202/p204-ERK (pERK), MEK, ERK, (Cell Signaling), V5 tag (Invitrogen), BRAF, cyclin Flag tag, β-actin (Sigma). […] Membranes were exposed to chemiluminescent reagents and images captured using the ImageQuant LAS 4000 instrument (GE HealthCare).

[8] = Homo sapiens, not reached up to 10 μM, read-out: GI50, concentration of drug that inhibits growth of cells by 50%

CCCS(=O)(=O)Nc1ccc(F)c(C(=O)c2c[nH]c3ncc(-c4ccc(Cl)cc4)cc23)c1F [PLX4032]
sensitivity to PLX4032-mediated growth inhibition [1]: exquisitely sensitive | vemurafenib resistance conferred by V600EB-RAF over-expression [2]: highly saturable by micromolar concentrations | growth sensitivity to vemurafenib treatment (M395 R; M395 R (amplified V600EB-RAF)): highly resistant | drug sensitivity at high vemurafenib dosing (M395 R; vemurafenib from 1 to 50 µM, 72 h, versus M249 R4): highly sensitive | pERK levels, sensitivity to acute V600EB-RAF inhibition (pERK levels in M395 R): highly resistant | Best Response (melanoma tumors): −72% (2×) and −20% and −70% (2×) and −22% and −53% (2×) and −31% (2×) and −60% and −47% and −43% and −25% and −74% and −24% and −37% and −100% and −42% and +8% | PFS (melanoma tumors): 464 days and 304 days and 104 days and 161 days and 137 days and 238 days and 212 days and 373 days and 148 days and 299 days and 107 days and 149 days and 126 days and 279 days and 118 days and 241 days and 168 days (2×) and 79 days and 50 days and 106 days | GI50 [3, 8]: > 10 µM | growth at low PLX4032 concentrations ([3]; in contrast to parental cells): paradoxically enhanced growth | growth resistance to B-RAF inhibitor [4]: resistance | growth resistance to B-RAF inhibitor [5]: resistance | GI50 [6, 8]: > 10 µM | growth at low PLX4032 concentrations ([6]; in contrast to parental cells): paradoxically enhanced growth | ERK signaling (p61 BRAF(V600E/R509H)): inhibited | Best overall response (melanoma): 83% and 14% and 37% and 53% (2×) and 73% and 84% and 32% and 42% and 24% and 57% and 75% | Progression free survival (melanoma): 161 days and 113 days (2×) and 270 days and 106 days and 141 days and 149 days and 137 days and 126 days (2×) and 466 days and 84 days | sensitivity of ERK signaling to the drug ([7]; PLX4032-resistant SKMEL-239 clones): decreased sensitivity | IC50 for pMEK inhibition relative to the parental cell line ([7]; SKMEL-239 C3 clone, 1 hour): more than 100 fold | pMEK IC50 relative to the parental cell line ([7]; SKMEL-239 C5 clone, 1 hour): 4.5 fold | inhibition of ERK signaling ([7]; SKMEL-239 parental, 2 μM PLX4032): effectively inhibits
